Measured values as given in patent US12116357B2, “Heteroaryl-triazole and heteroaryl-tetrazole compounds as pesticides” (Bayer Aktiengesellschaft, priority 2018, dated 2024).
Like-named read-outs stand apart in the source and are kept apart here. Each block holds one compound with its values, some of them ahead of it.

Columns and labels:
[1] = log P by HPLC on reversed phase columns (EEC directive 79/831 Annex V.A8); type: physicochemical; details: reversed phase HPLC column, LC-UV, neutral range
Boophilus microplus = Boophilus microplus injection test; type: in vivo; details: Rhipicephalus microplus, 168 h, 20 μg/animal, egg deposition after 7 days, read-out: efficacy (infertile eggs)
Procedure: (§1) • Solvent: dimethyl sulfoxide
To produce a suitable preparation of active compound, 10 mg of active compound are dissolved in 0.5 ml solvent, and the concentrate is diluted with solvent to the desired concentration.
Five adult engorged female ticks (Boophilus microplus) are injected with 1 μl compound solution into the abdomen. The ticks are transferred into replica plates and incubated in a climate chamber.
After 7 days egg deposition of fertile eggs is monitored. Eggs where fertility is not visible are stored in a climate chamber till hatching after about 42 days. An efficacy of 100% means all eggs are infertile; 0% means all eggs are fertile.

Ctenocephalides felis = Ctenocephalides felis oral test; type: in vivo; details: 48 h, 100 ppm in cattle blood, after 2 days
Procedure: as §1
To produce a suitable preparation of active compound, 10 mg of active compound are dissolved in 0.5 ml solvent, and the concentrate is diluted with cattle blood to the desired concentration.
Approximately 20 adult unfed cat fleas (Ctenocephalides felis) are placed in flea chambers. The blood chamber, sealed with parafilm on the bottom, are filled with cattle blood supplied with compound solution and placed on the gauze covered top of the flea chamber, so that the fleas are able to suck the blood. The blood chamber is heated to 37° C. whereas the flea chamber is kept at room temperature.
After 2 days mortality in % is determined. 100% means all the fleas have been killed; 0% means none of the fleas have been killed.

Spodoptera frugiperda = Spodoptera frugiperda spray test; type: in vivo; details: 168 h
Procedure: • Solvent: 78.0 parts by weight acetone • 1.5 parts by weight dimethylformamide • Emulsifier: alkylarylpolyglycol ether
(§2) To produce a suitable preparation of active compound, 1 part by weight of active compound is mixed with the stated amount of solvents and is diluted with water, containing an emulsifier concentration of 1000 ppm, to the desired concentration. Further test concentrations are prepared by dilution with emulsifier containing water.
Maize (Zea mays) leaf sections are sprayed with a preparation of the active ingredient of the desired concentration. Once dry, the leaf sections are infested with fall armyworm larvae (Spodoptera frugiperda).
After 7 days mortality in % is determined. 100% means all caterpillars have been killed and 0% means none of the caterpillars have been killed.

Phaedon cochleariae = Phaedon cochleariae spray test; type: in vivo; details: 168 h, after 7 days
Procedure: (§3) • Solvent: 78.0 parts by weight of acetone • 1.5 parts by weight of dimethylformamide • Emulsifier: alkylarylpolyglycol ether
as §2
Chinese cabbage (Brassica pekinensis) leaf disks are sprayed with a preparation of the active ingredient of the desired concentration. Once dry, the leaf disks are infested with mustard beetle larvae (Phaedon cochleariae).
After 7 days mortality in % is determined. 100% means all beetle larvae have been killed and 0% means none of the beetle larvae have been killed.

Myzus persicae = Myzus persicae oral test; type: in vivo; details: 120 h
Procedure: • Solvent: 100 parts by weight acetone
To produce a suitable preparation of active compound, 1 part by weight of active compound is mixed with the stated amount of solvent, and the concentrate is diluted with water to the desired concentration. 50 μl compound solution is filled in microtiter plates and 150 μl IPL41 insect medium (33%+15% sugar) is added to obtain a total volume of 200 μl per well. Afterwards the plates are sealed with parafilm through which a mixed population of the green peach aphid (Myzus persicae) can suck on the compound preparation.
After 5 days mortality in % is determined. 100% means all aphids have been killed and 0% means none of the aphids have been killed.

Nezara viridula = Nezara viridula spray test; type: in vivo; details: 96 h
Procedure: as §3
as §2, with “solvent,” for “solvents”, “and the concentrate” for “and”
Barley plants (Hordeum vulgare) infested with larvae of the southern green stink bug (Nezara viridula) are sprayed with a test solution containing the desired concentration of the active ingredient.
After 4 days mortality in % is determined. 100% means all the stink bugs have been killed; 0% means none of the stink bugs have been killed.

Nilaparvata lugens = Nilaparvata lugens spray test; type: in vivo; details: 96 h
Procedure: as §3, §2
Rice plants (Oryza sativa) are sprayed with a preparation of the active ingredient of the desired concentration and the plants are infested with the brown planthopper (Nilaparvata lugens).
After 4 days mortality in % is determined. 100% means all planthoppers have been killed and 0% means none of the planthoppers have been killed.

[2] = system: Aedes aegypti strain MONHEIM; assay: Aedes aegypti test (surface treatment & contact assay); type: in vivo; details: surface concentration 20 mg/m^2, 30 min exposure, 24 hours after contact, read-out: efficacy (mortality)
Procedure: • Solvent: Aceton+2000 ppm rapeseed oil methyl ester (RME)
In order to produce a sufficient, active ingredient containing solution it is necessary to solve the test compound in the solvent-mix (acetone at 2 mg/ml/RME 2000 ppm). This solution is pipetted onto a glazed tile and after evaporation of the acetone, adult mosquitoes of the species Aedes aegypti strain MONHEIM are placed onto the dried surface. The exposure time is 30 minutes.
Mortality in percent (%) is determined 24 hours after contact of the insects to the treated surface. 100% mortality means that all tested insects are dead, whereas 0% means that no insect died.

[3] = 0.001 molar ammonium acetate in water and acetonitrile (table footnote), read-out: LogP^[a]

chromatographic logP [1, 3]: 1.73
Structure (SMILES): CC(NCC1(C)CC1)c1ncnn1-c1ncccn1 (centres unmarked) [a-010]

Structure (SMILES): CC(c1ncnn1-c1ncccn1)N(CC1CCOC1)C(=O)c1cc(Cl)cc(C(F)(F)F)c1 (centres unmarked) [Example I-015]
pest or weed control at 0.02 mg (Boophilus microplus): 100%
mortality at 100 ppm (Ctenocephalides felis): 100%
mortality at 500 g/ha (Spodoptera frugiperda): 100%
mortality at 500 g/ha (Phaedon cochleariae): 100%
mortality at 20 ppm (Myzus persicae): 100%

chromatographic logP [1, 3]: 1.67
Structure (SMILES): CC(NCC1CCCC1)c1ncnn1-c1ncccn1 (centres unmarked) [a-004]

Structure (SMILES): CC(c1ncnn1-c1ncccn1)N(CC1CCOCC1)C(=O)c1cc(Cl)cc(C(F)(F)F)c1 (centres unmarked) [Example I-008]
mortality at 500 g/ha (Phaedon cochleariae): 100%
mortality at 20 ppm (Myzus persicae): 100%

Structure (SMILES): CC(c1ncnn1-c1ncccn1)N(CC1(C)CC1)C(=O)c1cc(Cl)cc(C(F)(F)F)c1 (centres unmarked) [Example I-009]
pest or weed control at 0.02 mg (Boophilus microplus): 80%
mortality at 100 ppm (Ctenocephalides felis): 100%
mortality at 500 g/ha (Nezara viridula): 100%
mortality at 500 g/ha (Spodoptera frugiperda): 100%
mortality at 500 g/ha (Phaedon cochleariae): 100%
mortality at 4 ppm (Myzus persicae): 100%
mortality at 20 ppm (Myzus persicae): 100%

chromatographic logP [1, 3]: 0.75
Structure (SMILES): CC(NC1CC1)c1ncnn1-c1ncccn1 (centres unmarked) [a-002]

chromatographic logP [1, 3]: 0.53
Structure (SMILES): CC(NCC1OCCO1)c1ncnn1-c1ncccn1 (centres unmarked) [a-022]

chromatographic logP [1, 3]: 0.8
Structure (SMILES): CC(NCC1CCCO1)c1ncnn1-c1ncccn1 (centres unmarked) [a-012]

chromatographic logP [1, 3]: 1.35
Structure (SMILES): CC(NCc1ccc(C#N)cc1)c1ncnn1-c1ncccn1 (centres unmarked) [a-018]

Structure (SMILES): CC(NCc1ccccn1)c1ncnn1-c1ncccn1 (centres unmarked) [a-001, N-(pyridin-2-ylmethyl)-1-[1-(pyrimidin-2-yl)-1H-1,2,4-triazol-5-yl]ethanamine]
chromatographic logP [1, 3]: 0.72
chromatographic logP ([1]; 0.001 molar ammonium acetate in water and acetonitrile, read-out: log P^[b]): 0.77

chromatographic logP [1, 3]: 1.65
Structure (SMILES): CSCCNC(C)c1ncnn1-c1ccc(C#N)cn1 (centres unmarked) [a-025]

chromatographic logP [1, 3]: 0.53
Structure (SMILES): CC(NCc1ccncc1)c1ncnn1-c1ncccn1 (centres unmarked) [a-014]

chromatographic logP [1, 3]: 0.26
Structure (SMILES): CC(NC1COC1)c1ncnn1-c1ncccn1 (centres unmarked) [a-021]

chromatographic logP [1, 3]: 0.52
Structure (SMILES): COCCNC(C)c1ncnn1-c1ncccn1 (centres unmarked) [a-006]

Structure (SMILES): CC(c1ncnn1-c1ncccn1)N(Cc1cccnc1)C(=O)c1cc(Cl)cc(C(F)(F)F)c1 (centres unmarked) [Example I-019]
pest or weed control at 0.02 mg (Boophilus microplus): 100%
mortality at 100 ppm (Ctenocephalides felis): 90%
mortality at 500 g/ha (Nezara viridula): 100%
mortality at 500 g/ha (Spodoptera frugiperda): 100%
mortality at 500 g/ha (Phaedon cochleariae): 100%
mortality at 500 g/ha (Nilaparvata lugens): 100%
mortality at 20 mg/m2 [2]: 90 to 100%
mortality at 4 ppm (Myzus persicae): 100%
mortality at 20 ppm (Myzus persicae): 100%

Structure (SMILES): COc1ccc(CN(C(=O)c2cc(Cl)cc(C(F)(F)F)c2)C(C)c2ncnn2-c2ncccn2)cc1 (centres unmarked) [Example I-020]
pest or weed control at 0.02 mg (Boophilus microplus): 80%
mortality at 100 ppm (Ctenocephalides felis): 100%
mortality at 500 g/ha (Nezara viridula): 100%
mortality at 20 ppm (Myzus persicae): 100%

chromatographic logP [1, 3]: 1.41
Structure (SMILES): COc1ccc(CNC(C)c2ncnn2-c2ncccn2)cc1 (centres unmarked) [a-020]

chromatographic logP [1, 3]: 1.62
Structure (SMILES): CC(NCCc1ccc(F)cc1)c1ncnn1-c1ncccn1 (centres unmarked) [a-009]
